Assay results published in patent publication US9481670B2, “Triazine compounds” (Sphaera Pharma PTE. Ltd., priority 2011, dated 2016).

Target: T1, PI3K alpha (Homo sapiens, UniProt P42336)
T1 construct: purchased Millipore Upstate
Assay: P110 Alpha TR-FRET Assay (PI3K alpha kinase assay, HTRF Transcreener ADP Assay)
Type: biochemical
Conditions: PI3K (WT)
How it was run: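 Enzyme (50 ng) and compound were preincubated 20 min in HEPES pH 7.5 buffer containing MgCl2, DTT and vanadate before 10 μM ATP plus 5 μM PIP2 substrate was added for 20 min. ADP produced was quantified by TR-FRET (ADP-d2, anti-ADP cryptate, 1 h).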

T1 sequence (P42336 whole entry): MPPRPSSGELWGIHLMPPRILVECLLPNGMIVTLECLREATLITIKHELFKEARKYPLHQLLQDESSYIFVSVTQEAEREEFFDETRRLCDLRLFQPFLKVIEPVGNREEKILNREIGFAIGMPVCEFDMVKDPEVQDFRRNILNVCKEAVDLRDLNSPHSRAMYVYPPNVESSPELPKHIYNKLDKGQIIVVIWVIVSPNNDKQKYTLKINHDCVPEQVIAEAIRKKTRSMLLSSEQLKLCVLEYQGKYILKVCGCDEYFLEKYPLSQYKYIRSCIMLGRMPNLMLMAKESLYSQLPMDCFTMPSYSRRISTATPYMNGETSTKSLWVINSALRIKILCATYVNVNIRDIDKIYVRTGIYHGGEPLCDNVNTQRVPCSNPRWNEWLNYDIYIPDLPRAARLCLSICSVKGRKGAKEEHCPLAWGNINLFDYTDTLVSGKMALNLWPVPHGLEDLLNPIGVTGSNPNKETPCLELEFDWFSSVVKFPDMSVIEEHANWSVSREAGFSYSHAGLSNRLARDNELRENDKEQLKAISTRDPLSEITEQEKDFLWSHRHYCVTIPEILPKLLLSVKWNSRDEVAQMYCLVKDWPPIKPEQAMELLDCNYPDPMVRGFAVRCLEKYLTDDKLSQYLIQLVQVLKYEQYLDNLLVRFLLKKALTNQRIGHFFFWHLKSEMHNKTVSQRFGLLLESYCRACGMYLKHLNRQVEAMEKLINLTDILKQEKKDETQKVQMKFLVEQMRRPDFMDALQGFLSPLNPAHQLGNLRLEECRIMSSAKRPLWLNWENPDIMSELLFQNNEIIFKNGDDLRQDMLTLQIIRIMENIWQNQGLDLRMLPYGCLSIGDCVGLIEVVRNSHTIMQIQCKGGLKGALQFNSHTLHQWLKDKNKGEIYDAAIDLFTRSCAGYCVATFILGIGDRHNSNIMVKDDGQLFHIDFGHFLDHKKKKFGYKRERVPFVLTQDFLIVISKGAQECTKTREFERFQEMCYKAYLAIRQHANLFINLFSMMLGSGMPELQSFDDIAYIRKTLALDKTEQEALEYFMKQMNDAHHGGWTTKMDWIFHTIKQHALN
T1 sequence (P27986 whole entry partner): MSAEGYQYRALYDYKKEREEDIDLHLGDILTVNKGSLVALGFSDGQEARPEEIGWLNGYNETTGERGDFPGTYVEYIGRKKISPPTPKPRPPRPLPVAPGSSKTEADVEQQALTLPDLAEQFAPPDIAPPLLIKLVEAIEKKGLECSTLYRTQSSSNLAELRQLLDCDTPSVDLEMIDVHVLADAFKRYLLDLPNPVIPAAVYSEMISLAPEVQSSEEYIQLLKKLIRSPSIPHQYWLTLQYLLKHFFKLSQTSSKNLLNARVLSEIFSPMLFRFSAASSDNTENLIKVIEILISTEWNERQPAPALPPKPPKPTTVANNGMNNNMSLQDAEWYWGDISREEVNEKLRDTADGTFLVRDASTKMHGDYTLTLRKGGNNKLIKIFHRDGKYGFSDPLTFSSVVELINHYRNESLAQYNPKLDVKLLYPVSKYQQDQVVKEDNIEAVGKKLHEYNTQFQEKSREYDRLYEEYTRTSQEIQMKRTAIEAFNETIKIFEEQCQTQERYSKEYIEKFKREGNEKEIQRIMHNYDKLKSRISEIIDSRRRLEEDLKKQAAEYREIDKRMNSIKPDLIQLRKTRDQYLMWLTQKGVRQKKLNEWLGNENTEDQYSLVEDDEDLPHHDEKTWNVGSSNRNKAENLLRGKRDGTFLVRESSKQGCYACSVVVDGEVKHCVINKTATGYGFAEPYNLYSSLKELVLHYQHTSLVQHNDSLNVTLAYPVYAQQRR

SMILES	IC50 [µM]
CNC(=O)C(=O)Nc1ccc(Oc2nc(-c3cccc4[nH]ncc34)nc(N3CCOCC3)n2)cc1 [Compound 1100, N-(4-14-{[4-1-(1H-indazol-4-yl)-6-5-(morpholin-4-yl)-1,3,5-triazin-2-yl]oxy}phenyl)-N′-methylethanediamide]	< 5
CN(C)C(=O)C(=O)Nc1ccc(Oc2nc(-c3cccc4[nH]ncc34)nc(N3CCOCC3)n2)cc1 [Compound 1101, N-(4-14-{[4-1-(1H-indazol-4-yl)-6-5-(morpholin-4-yl)-1,3,5-triazin-2-yl]oxy}phenyl)-N′,N′-dimethylethanediamide]	< 5
CS(=O)(=O)N1CCC(Oc2nc(-c3cccc4[nH]ncc34)nc(N3CCOCC3)n2)CC1 [Compound 1102, 4-7-{4-3-[(1-25-methanesulfonylpiperidin-4-yl)oxy]-6-5-(morpholin-4-yl)-1,3,5-triazin-2-yl}-1H-indazole]	< 5
CN(C)C(=O)[C@H]1C[C@H](Oc2nc(-c3cccc4[nH]ncc34)nc(N3CCOCC3)n2)CN1 [Compound 1103, (2R,4S)-4-14-{[4-1-(1H-indazol-4-yl)-6-5-(morpholin-4-yl)-1,3,5-triazin-2-yl]oxy}-N,N-dimethylpyrrolidine-2-carboxamide]	< 5
CN(C)C(=O)CCNc1nc(-c2ccc(N)nc2)nc(N2CCOCC2)n1 [Compound 1104, 3-((4-(6-aminopyridin-3-yl)-6-morpholino-1,3,5-triazin-2-yl)amino)-N,N-dimethylpropanamide]	< 5
Oc1ccc(-c2nc(N3CCNCC3)nc(N3CCOCC3)n2)cn1 [Compound 1105, 5-12-[4-5-(morpholin-4-yl)-6-3-(piperazin-1-yl)-1,3,5-triazin-2-yl]pyridin-2-ol]	< 5
CN(C)C(=O)Nc1ccc(Oc2nc(-c3cccc4[nH]ncc34)nc(N3CCOCC3)n2)cc1 [Compound 1106, 1-(4-14-{[4-1-(1H-indazol-4-yl)-6-5-(morpholin-4-yl)-1,3,5-triazin-2-yl]oxy}phenyl)-3,3-dimethylurea]	< 5
CC(C)C(=O)Nc1ccc(Oc2nc(-c3cccc4[nH]ncc34)nc(N3CCOCC3)n2)cc1 [Compound 1107, N-(4-14-{[4-1-(1H-indazol-4-yl)-6-5-(morpholin-4-yl)-1,3,5-triazin-2-yl]oxy}phenyl)-2-30-methylpropanamide]	< 5
CN(C)C(=O)N1CCC(Oc2nc(-c3cccc4[nH]ncc34)nc(N3CCOCC3)n2)C1 (centres unmarked) [Compound 1108, 3-14-{[4-1-(1H-indazol-4-yl)-6-5-(morpholin-4-yl)-1,3,5-triazin-2-yl]oxy}-N,N-dimethylpyrrolidine-1-carboxamide]	< 5
CN(C)C(=O)N1CCC(COc2nc(-c3cccc4[nH]ncc34)nc(N3CCOCC3)n2)C1 (centres unmarked) [Compound 1109, 3-22-({[4-1-(1H-indazol-4-yl)-6-5-(morpholin-4-yl)-1,3,5-triazin-2-yl]oxy}methyl)-N,N-dimethylpyrrolidine-1-carboxamide]	< 5
CN(C)C(=O)c1ccc(COc2nc(-c3cccc4[nH]ncc34)nc(N3CCOCC3)n2)cc1 [Compound 1110, 4-23-({[4-1-(1H-indazol-4-yl)-6-5-(morpholin-4-yl)-1,3,5-triazin-2-yl]oxy}methyl)-N,N-dimethylbenzamide]	< 5
CN(C)C(=O)c1cccc(Nc2nc(-c3cccc4[nH]ncc34)nc(N3CCNC(=O)C3)n2)c1 [Compound 1111, 3-((4-(1H-indazol-4-yl)-6-(3-oxopiperazin-1-yl)-1,3,5-triazin-2-yl)amino)-N,N-dimethylbenzamide]	> 5
CN(C)C(=O)c1ccc(Oc2nc(-c3cccc4[nH]ncc34)nc(N3CCOCC3)n2)cc1 [Compound 1114, 4-14-{[4-1-(1H-indazol-4-yl)-6-5-(morpholin-4-yl)-1,3,5-triazin-2-yl]oxy}-N,N-dimethylbenzamide]	< 5
c1ccc(CN2CCC(Oc3nc(-c4cccc5[nH]ncc45)nc(N4CCOCC4)n3)CC2)cc1 [Compound 1115, 4-(4-((1-benzylpiperidin-4-yl)oxy)-6-(1H-indazol-4-yl)-1,3,5-triazin-2-yl)morpholine]	< 5
CC(C)(C)OC(=O)N1CCC(NC(=O)c2cccc(Nc3nc(-c4cccc5[nH]ncc45)nc(N4CCOCC4)n3)c2)CC1 [Compound 1116, tert-butyl 4-(3-((4-(1H-indazol-4-yl)-6-morpholino-1,3,5-triazin-2-yl)amino)benzamido)piperidine-1-carboxylate]	< 5
O=C1CCN(C(=O)c2cccc(Nc3nc(-c4cccc5[nH]ncc45)nc(N4CCOCC4)n3)c2)CCN1 [Compound 1117, 1-(3-((4-(1H-indazol-4-yl)-6-morpholino-1,3,5-triazin-2-yl)amino)benzoyl)-1,4-diazepan-5-one]	< 5
O=C(O)C(Cc1ccccc1)Nc1nc(-c2cccc(O)c2)nc(N2CCOCC2)n1 (centres unmarked) [Compound 1118, 2-((4-(3-hydroxyphenyl)-6-morpholino-1,3,5-triazin-2-yl)amino)-3-phenylpropanoic acid]	< 5
CN(C)Cc1ccc(Oc2nc(-c3cccc4[nH]ncc34)nc(N3CCOCC3)n2)cc1 [Compound 1119, 1-(4-((4-(1H-indazol-4-yl)-6-morpholino-1,3,5-triazin-2-yl)oxy)phenyl)-N,N-dimethylmethanamine]	< 5

SMILES	IC50 [µM]
CS(=O)(=O)N1CCN(C(=O)CNc2nc(-c3ccc(N)cc3)nc(N3CCOCC3)n2)CC1 [Compound 1120, 2-((4-(4-aminophenyl)-6-morpholino-1,3,5-triazin-2-yl)amino)-1-(4-(methylsulfonyl)piperazin-1-yl)ethanone]	> 5
CC(=O)Nc1cccc(-c2nc(N3CCOCC3)nc(N(CC(=O)O)C(C)=O)n2)c1 [Compound 1121, 2-9-{N-[4-1-(3-14-acetamidophenyl)-6-5-(morpholin-4-yl)-1,3,5-triazin-2-yl]acetamido}acetic acid]	> 5
CN(C)C(=O)CNc1nc(-c2cccc(C(N)=O)c2)nc(N2CCOCC2)n1 [Compound 1122, 3-12-(4-0-{[(dimethylcarbamoyl)methyl]amino}-6-4-(morpholin-4-yl)-1,3,5-triazin-2-yl)benzamide]	> 5
CNC(=O)C(=O)N[C@H]1CC[C@H](Oc2nc(-c3cccc4[nH]ncc34)nc(N3CCOCC3)n2)CC1 [Compound 1124, N-methyl-N′-[(1r,4r)-4-9-{[4-1-(1H-indazol-4-yl)-6-5-(morpholin-4-yl)-1,3,5-triazin-2-yl]oxy}cyclohexyl]ethanediamide]	< 5
CN(C)C(=O)C(=O)N[C@H]1CC[C@H](Oc2nc(-c3cccc4[nH]ncc34)nc(N3CCOCC3)n2)CC1 [Compound 1125, N,N-dimethyl-N′-[(1r,4r)-4-9-{[4-1-(1H-indazol-4-yl)-6-5-(morpholin-4-yl)-1,3,5-triazin-2-yl]oxy}cyclohexyl]ethanediamide]	< 5
Fc1ccc(-c2nc(N3CCNCC3)nc(N3CCOCC3)n2)cn1 [Compound 1127, 2-1-(6-16-fluoropyridin-3-yl)-4-5-(morpholin-4-yl)-6-3-(piperazin-1-yl)-1,3,5-triazine]	< 5
COc1cccc(-c2nc(N)nc(N3CCOCC3)n2)c1 [Compound 1128, 4-4-(3-13-methoxyphenyl)-6-0-(morpholin-4-yl)-1,3,5-triazin-2-amine]	> 5
O=C(Nc1ccccn1)c1cccc(Nc2nc(-c3cccc4[nH]ncc34)nc(N3CCOCC3)n2)c1 [Compound 1129, 3-((4-(1H-indazol-4-yl)-6-morpholino-1,3,5-triazin-2-yl)amino)-N-(pyridin-2-yl)benzamide]	< 5
CS(=O)(=O)N1CCN(C(=O)c2cccc(Nc3nc(-c4cccc5[nH]ncc45)nc(N4CCOCC4)n3)c2)CC1 [Compound 1130, (3-((4-(1H-indazol-4-yl)-6-morpholino-1,3,5-triazin-2-yl)amino)phenyl)(4-(methylsulfonyl)piperazin-1-yl)methanone]	< 5
N#Cc1cccc(Oc2nc(-c3cccc4[nH]ncc34)nc(N3CCOCC3)n2)c1 [Compound 1131, 3-22-{[4-1-(1H-indazol-4-yl)-6-5-(morpholin-4-yl)-1,3,5-triazin-2-yl]oxy}benzonitrile]	> 5
CN(C)C(=O)c1sccc1Nc1nc(-c2cccc3[nH]ncc23)nc(N2CCOCC2)n1 [Compound 1132, 3-((4-(1H-indazol-4-yl)-6-morpholino-1,3,5-triazin-2-yl)amino)-N,N-dimethylthiophene-2-carboxamide]	< 5
CN(C)C(=O)[C@@H]1CCC[C@@H](Oc2nc(-c3cccc4[nH]ncc34)nc(N3CCOCC3)n2)C1 [Compound 1133, (1R,3R)-3-14-{[4-1-(1H-indazol-4-yl)-6-5-(morpholin-4-yl)-1,3,5-triazin-2-yl]oxy}-N,N-dimethylcyclohexane-1-carboxamide]	< 5
Nc1ccc(-c2nc(N3CCNCC3)nc(N3CCOCC3)n2)cn1 [Compound 1134, 5-18-[4-5-(morpholin-4-yl)-6-3-(piperazin-1-yl)-1,3,5-triazin-2-yl]pyridin-2-amine]	< 5
NC(=O)CNc1nc(-c2cccc(C(N)=O)c2)nc(N2CCOCC2)n1 [Compound 1135, 3-6-{4-1-[(carbamoylmethyl)amino]-6-2-(morpholin-4-yl)-1,3,5-triazin-2-yl}benzamide]	> 5
CSCCC(Nc1nc(-c2cccc(O)c2)nc(N2CCOCC2)n1)C(=O)O (centres unmarked) [Compound 1136, 2-((4-(3-hydroxyphenyl)-6-morpholino-1,3,5-triazin-2-yl)amino)-4-(methylthio)butanoic acid]	< 5
CN(C)C(=O)CNc1nc(-c2cccc(C(F)F)c2)nc(N2CCOCC2)n1 [Compound 1137, 2-((4-(3-(difluoromethyl)phenyl)-6-morpholino-1,3,5-triazin-2-yl)amino)-N,N-dimethylacetamide]	> 5
CC(Nc1nc(-c2cccc(NS(C)(=O)=O)c2)nc(N2CCOCC2)n1)C(=O)O (centres unmarked) [Compound 1138, 2-((4-(3-(methylsulfonamido)phenyl)-6-morpholino-1,3,5-triazin-2-yl)amino)propanoic acid]	> 5
